Measured values taken from US20060045892A1, “Cosmetic compositions” (priority 2004, published 2006).

These compounds were tested on skin redness, skin inflammation, irritation and skin aging (assay: Materials tested for usefulness in the present invention (improving skin appearance, reducing skin redness, inflammation, irritation)). Details: topical; related materials tested.
Assay type: in vivo, humans

SMILES | usefulness (activity) in the present invention
OC1CCCC1O (stereo not drawn) [1,2-cyclopentanediol] | do not work
CC1(O)CCCCC1 [1-methylcyclohexanol] | not to be useful
OCCCCC1CCCCC1 [4-cyclohexyl-1-butanol] | not to be useful
OCC1(CO)CC2C=CC1C2 (stereo not drawn) [5-norborene-2,2-dimethanol] | do not work
CC1(C)[C@H]2C[C@H]1[C@@](C)(O)[C@@H](O)C2 [(1R,2R,3S,5S-(−))-pinanediol] | do not work
C1CCCCC1 [cyclohexane] | not to be useful
C1=CCCCC1 [cyclohexene] | not to be useful
CC(=O)OC1CCCCC1 [cyclohexyl acetate] | not to be useful
O=C(O)C1CCCCC1 [cyclohexyl carboxylic acid] | not to be useful
ClC1CCCCC1 [cyclohexyl chloride] | not to be useful
CC1CCC(C(C)C)C(O)C1 (stereo not drawn) [menthol] | not to be useful

What follows are compounds tested on skin (assay: Skin irritation by the applied material). Details: topical.
Assay type: in vivo, humans

SMILES | irritation (reddening) of the skin to which it is applied
CC1CCC(C(C)C)C(O)C1 (stereo not drawn) [menthol] | can irritate
